Experimental data reported in patent publication EP2444088A1, “Amino derivatives for the treatment of proliferative skin disorders” (Almirall, S.A., priority 2010, dated 2012).

What was measured:
HaCaT cells = assay: Proliferation assay (HaCaT cells, ATP-lite bioluminescent readout of intracellular ATP); assay type: cell-based; conditions: Homo sapiens, 144 h, absolute IC50 of inhibition of proliferation, 10% FBS, 6 days incubation, mean of 3 experiments
Method: Human adult low calcium high temperature (HaCaT) cells are spontaneously transformed human keratinocytes that have the characteristics of basal epidermal keratinocytes (Boukamp et at. J Cell Biol 106:761-771, 1988) This line can be used as in vitro model for highly proliferative epidermis (Ockenfels et at., Arch Dermatol Res 287:301-309, 1995)
HaCaT cells exponentially growing were plated in clear bottom, white walled, 96-well plates at a density of 5000 cells/well in 100 µL Dulbecco's modified Eagle's medium (DMEM) containing 1% fetal bovine serum (FBS), and incubated overnight at 37 °C, 5% CO2. Next day, media in each well was replaced with 50 µL growth medium containing 10% FBS. 50 µL of compounds at two-fold the desired concentration in growth medium containing 2% dimethyl sulfoxide (DMSO) were added to the wells. Six wells were replaced with fresh 100 µL of medium containing 1% FBS and 1% DMSO and were used as a control of no proliferation. Six other wells were replaced with fresh 100 µL of medium containing 10% FBS and 1% DMSO and were used as a control of top proliferation. Each compound concentration was tested in triplicate and ranged from 100 µM to 0.4 µM in half-log serial dilutions. Plates were incubated at 37°C 5% CO2 for 6 consecutive days. […] Results were expressed as a % of inhibition of proliferation in relation to the top and bottom proliferation wells. […]

[1] = tested on: premalignant and malignant human cutaneous keratinocytes; conditions: cytostasis was followed by apoptosis; cited from earlier work

Compound | IC50 (HaCaT cells) [nM] | effect on premalignant and malignant human cutaneous keratinocytes [1]
O=C(O)c1cc(C2CC2)ccc1Nc1cnc(-c2c(F)cccc2F)nc1 [5-cyclopropyl-2-(2-(2,6-difluorophenyl)pyrimidin-5-ylamino)benzoic acid] | 260 | –
COc1cccc(-c2cc(F)c(Nc3ncccc3C(=O)O)c(F)c2)c1 [2-(3,5-difluoro-3'-methoxybiphenyl-4-ylamino)nicotinic acid] | 580 | –
CC(O)=C(C#N)C(=O)Nc1ccc(C(F)(F)F)cc1 [Teriflunomide, 2-Butenamide, 2-cyano-3-hydroxy-N-[4-(trifluoromethyl)phenyl]-] | – | dose- and time-dependent cytostasis
